Measurements published in ChEMBL document CHEMBL1152761, “Synthesis of novel substituted pyrazole-5-carbohydrazide hydrazone derivatives and discovery of a potent apoptosis inducer in A549 lung cancer cells” (Bioorg Med Chem, 2009).
Calls of active or inactive are those of the source. The rule behind the calls is not given here.

How the values were obtained:
Format in all cases: functional, cell-based
A549 [1] = experiment: Growth inhibition of human A549 cells after 48 hrs by MTT assay; details: for IC50: A549, 48 h
A549 [2] = experiment: Induction of necrosis in human A549 cells assessed as LDH release at 0.5 uM after 24 to 48 hrs
A549 [3] = experiment: Induction of apoptosis in human A549 cells assessed as cell shrinkage like morphological changes at 1 uM after 48 hrs by light microscopy
A549 [4] = experiment: Induction of necrosis in human A549 cells assessed as LDH release at 1 uM after 24 to 48 hrs
A549 [5] = experiment: Induction of necrosis in human A549 cells assessed as LDH release at 0.1 uM after 24 to 48 hrs
A549 [6] = experiment: Induction of apoptosis in human A549 cells assessed as DNA fragmentation after 48 hrs by acridine orange staining
A549 [7] = experiment: Induction of apoptosis in human A549 cells assessed as DNA fragmentation after 48 hrs by TUNEL assay

| Compound | IC50 (A549 [1]) [µM] | Activity (A549 [1]) | also measured |
| --- | --- | --- | --- |
| C/C(=N\NC(=O)c1cc(-c2ccc(Cl)cc2)nn1Cc1ccc(C(C)(C)C)cc1)c1cc(C)ccc1O | 2.49 | Dose-dependent effect | – |
| COc1ccc(-c2cc(C(=O)N/N=C(\C)c3cc(C)ccc3O)n(Cc3ccc(C(C)(C)C)cc3)n2)cc1 | 10.4 | Dose-dependent effect | – |
| COc1ccc(-c2cc(C(=O)N/N=C(\C)c3cc(Cl)ccc3O)n(Cc3ccc(C(C)(C)C)cc3)n2)cc1 | 9.62 | Dose-dependent effect | – |
| C/C(=N\NC(=O)c1cc(-c2ccc(Cl)cc2)nn1Cc1ccc(C(C)(C)C)cc1)c1cc(Cl)ccc1O | 0.28 | Dose-dependent effect | Activity (A549 [2]): inactive; Activity (A549 [3]): Active; Activity (A549 [4]): inactive; Activity (A549 [5]): inactive; Activity (A549 [6]): Active; Activity (A549 [7]): Active |
| C/C(=N\NC(=O)c1cc(-c2ccc(Cl)cc2)nn1Cc1ccc(C(C)(C)C)cc1)c1cc(Cl)cc(Cl)c1O | 7.9 | Dose-dependent effect | – |
| COc1ccc(-c2cc(C(=O)N/N=C(\C)c3cc(Cl)cc(Cl)c3O)n(Cc3ccc(C(C)(C)C)cc3)n2)cc1 | 2.08 | Dose-dependent effect | – |

Continued by falling IC50 (A549 [1]), values first:

| IC50 (A549 [1]) [µM] | Compound | Activity (A549 [1]) | also measured |
| --- | --- | --- | --- |
| 6.1 | C/C(=N\NC(=O)c1cc(-c2ccccc2)nn1Cc1ccc(C(C)(C)C)cc1)c1cc(C)ccc1O | Dose-dependent effect | – |
| 3.17 | C/C(=N\NC(=O)c1cc(-c2ccccc2)nn1Cc1ccc(C(C)(C)C)cc1)c1cc(Cl)cc(Cl)c1O | Dose-dependent effect | – |
| 2.77 | C/C(=N\NC(=O)c1cc(-c2ccccc2)nn1Cc1ccc(C(C)(C)C)cc1)c1cc(Cl)ccc1O | Dose-dependent effect | – |
